# According to PubChem BioAssay (NCI):
#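 Grown in 96-well plates, cells were treated for 48 hours with each compound at five concentrations. Insufficient inhibition: endpoint recorded as highest concentration tested. At the GI50, growth is halved. The concentration for full growth arrest is given as TGI.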
# What was measured:
# Test in all cases: inhibition of tumour cell growth, NCI panel, 48 h
# HCT-116 colon = test system: HCT-116 colon
# A498 renal = test system: A498 renal
# SF-539 CNS = test system: SF-539 CNS
# MCF7 breast = test system: MCF7 breast
# NCI-H226 lung = test system: NCI-H226 lung
# ACHN renal = test system: ACHN renal
# HS 578T breast = test system: HS 578T breast
# BT-549 breast = test system: BT-549 breast
# MDA-MB-435 = test system: MDA-MB-435
# A549 NSCLC = test system: A549 NSCLC
# OVCAR-4 ovarian = test system: OVCAR-4 ovarian
# T-47D breast = test system: T-47D breast
# SR leukemia = test system: SR leukemia
# NCI-H460 lung = test system: NCI-H460 lung
# PC-3 prostate = test system: PC-3 prostate
# SK-MEL-28 melanoma = test system: SK-MEL-28 melanoma
# K-562 leukemia = test system: K-562 leukemia
# LOX IMVI melanoma = test system: LOX IMVI melanoma
# UACC-257 melanoma = test system: UACC-257 melanoma
# RXF 393 renal = test system: RXF 393 renal
# CCRF-CEM leukemia = test system: CCRF-CEM leukemia
# SN12C renal = test system: SN12C renal
# HCT-15 colon = test system: HCT-15 colon
# RPMI-8226 leukemia = test system: RPMI-8226 leukemia
# U251 CNS = test system: U251 CNS
# MALME-3M melanoma = test system: MALME-3M melanoma
# KM12 colon = test system: KM12 colon
# SK-MEL-2 melanoma = test system: SK-MEL-2 melanoma
# MOLT-4 leukemia = test system: MOLT-4 leukemia
compound,measurement,setting,value
CN1CCN(Cc2ccc(NC(=O)c3cncc(C#Cc4cnc5ccc(N6CCOCC6)nn45)c3)cc2C(F)(F)F)CC1,GI50,HCT-116 colon,26.3 nM
same,TGI,HCT-116 colon,342 nM
same,GI50,A498 renal,97.5 nM
same,TGI,A498 renal,189 nM
same,GI50,SF-539 CNS,60 nM
same,TGI,SF-539 CNS,205 nM
same,GI50,MCF7 breast,26.9 nM
same,TGI,MCF7 breast,442 nM
same,GI50,NCI-H226 lung,23.9 nM
same,TGI,NCI-H226 lung,320 nM
same,GI50,ACHN renal,131 nM
same,TGI,ACHN renal,510 nM
same,GI50,HS 578T breast,85.3 nM
same,TGI,HS 578T breast,353 nM
same,GI50,BT-549 breast,259 nM
same,TGI,BT-549 breast,763 nM
same,GI50,MDA-MB-435,53.3 nM
same,TGI,MDA-MB-435,231 nM
same,GI50,A549 NSCLC,121 nM
same,TGI,A549 NSCLC,555 nM
same,GI50,OVCAR-4 ovarian,99.1 nM
same,TGI,OVCAR-4 ovarian,543 nM
same,GI50,T-47D breast,199 nM
same,TGI,T-47D breast,2620 nM
same,GI50,SR leukemia,97.2 nM
same,TGI,SR leukemia,367 nM
same,GI50,NCI-H460 lung,84.5 nM
same,TGI,NCI-H460 lung,254 nM
same,GI50,PC-3 prostate,145 nM
same,TGI,PC-3 prostate,1040 nM
same,GI50,SK-MEL-28 melanoma,122 nM
same,TGI,SK-MEL-28 melanoma,433 nM
same,GI50,K-562 leukemia,5 nM
same,TGI,K-562 leukemia,1900 nM
same,GI50,LOX IMVI melanoma,59.3 nM
same,TGI,LOX IMVI melanoma,142 nM
same,GI50,UACC-257 melanoma,160 nM
same,TGI,UACC-257 melanoma,936 nM
same,GI50,RXF 393 renal,78.6 nM
same,TGI,RXF 393 renal,175 nM
same,GI50,CCRF-CEM leukemia,125 nM
same,TGI,CCRF-CEM leukemia,5980 nM
same,GI50,SN12C renal,49.5 nM
same,TGI,SN12C renal,300 nM
same,GI50,HCT-15 colon,112 nM
same,TGI,HCT-15 colon,375 nM
same,GI50,RPMI-8226 leukemia,153 nM
same,TGI,RPMI-8226 leukemia,553 nM
same,GI50,U251 CNS,141 nM
same,TGI,U251 CNS,558 nM
same,GI50,MALME-3M melanoma,37.2 nM
same,TGI,MALME-3M melanoma,153 nM
same,GI50,KM12 colon,5 nM
same,TGI,KM12 colon,243 nM
same,GI50,SK-MEL-2 melanoma,68 nM
same,TGI,SK-MEL-2 melanoma,144 nM
same,GI50,MOLT-4 leukemia,95.8 nM
